From patent US20220088195A1, “Prevention or mitigation of T-cell bispecific antibody-related adverse effects” (Hoffmann-La Roche Inc., priority 2020, published 2022)

Assays:
[1] = system: IFN-γ, TNF-α and IL-2 release; assay: Cytokine release in SKM-1 killing assay with HLA-A2 WT-1-TCB, dasatinib added after 24 hours (Luminex); assay type: cell-based, human; details: 48 hours; 100 nM dasatinib added at 24 hours
Method: FIG. 3. In vitro killing assay set-up and timelines. PBMCs were co-cultured with SKM-1 target cells (E:T=10:1) and 10 nM HLA-A2 WT-1-TCB. Dasatinib (100 nM) was added after 24 hours of activation. PBMCs were labelled with CellTrace™ Violet (CTV) to allow T cell proliferation assessment.
FIG. 5. Cytokine release. Supernatants were collected from the assay of FIG. 3 at 24h and 48h, and cytokines (IFN-γ (A), TNF-α (B) and IL-2 (C)) measured using a multiplex kit (Luminex). Mean+/−SD of 3 donors.
To evaluate if dasatinib could act as a rapid and potent inhibitor of activated T cells, we first stimulated PBMCs on SKM-1 tumor cells with HLA-A2 WT-1-TCB for 24 hours. We then supplemented these activated effector cells with 100 nM dasatinib (FIG. 3).

[2] = system: Z138 target cells; assay: Two-stimulation killing assay, PBMCs + Z138 target cells + CD20-TCB; assay type: cell-based, human; details: 100 nM dasatinib upon re-stimulation; 1 nM CD20-TCB
Method: FIG. 23. In vitro killing assay set-up and timelines. PBMCs were co-cultured with carboxyfluorescein succinimidyl ester (CFSE) labelled Z138 target cells (E:T=5:1) and […] 1 nM CD20-TCB for 20h. Activated PBMCs were washed and restimulated on fresh, CTV labelled Z138 target cells (E:T=5:1) and 1 nM CD20-TCB in the presence or absence of 100 nM dasatinib.
FIG. 24. Dead Z138 cells upon first and second stimulation with 1 nM CD20-TCB in the presence and absence of 100 nM dasatinib in the assay of FIG. 23, as measured by flow cytometry. Cells were collected 20h after the first and 24 h after the second stimulation and stained with live dead NIR dye. Mean of technical replicates+/−SD. N=3 donors.
FIG. 25. Dead Z138 cells upon second stimulation with 1 nM CD20-TCB in the presence and absence of 100 nM dasatinib in the assay of FIG. 23, as measured by flow cytometry. Cells were collected 24 h after second stimulation and stained with live dead NIR dye. Mean of technical replicates+/−SD. Three donors D1-D3 (A-C).
A similar re-stimulation experiment was performed with a different TCB, targeting CD20 (CD20-TCB (SEQ ID NOs 28-35, 48-59), 1 nM), and the killing of Z138 target cells measured after the first and second stimulation (FIG. 23).

[3] = system: CD20+ B cells; assay: CD19-TCB dependent B cell depletion in blood of humanized NSG mice; assay type: in vivo; details: 0.5 mg/kg CD19-TCB i.v. + 50 mg/kg dasatinib p.o. twice per day
Method: FIG. 32. Timelines and dosing schedule of in vivo experiment assessing effect of dasatinib (50 mg/kg) on CD19-TCB induced cytokine release and B cell depletion in humanized NSG mice. Humanized NSG mice were co-treated with 0.5 mg/kg CD19-TCB (i.v.) and 50 mg/kg dasatinib (p.o.) twice per day. Blood was collected by tail vein bleeding at 1.5 hrs, 6 hrs and 48 hrs after treatment with CD19-TCB. At 72 hrs, blood was collected retro-orbitally, before the termination of the experiment. N=4 mice per group.
FIG. 33. […] Representative flow cytometry dot plots of CD20+ B cells gated among human CD45+ cells in the blood (48 hrs) of animals treated with vehicle (A), 0.5 mg/kg CD19-TCB (B), or 0.5 mg/kg CD19-TCB and 50 mg/kg dasatinib (C).
FIG. 34. […] CD20+ B cell count was measured by flow cytometry in the blood of the animals from the experiment described in FIG. 32 at 48 hrs (A) and 72 hrs (B). Mean of n=4 mice+/−SEM. One way ANOVA, Kruskal Wallis test, p-value: 0.1234 (ns), 0.0332 (*), 0.0021 (**), 0.0001 (***), <0.0001 (****).
To verify whether dasatinib can prevent CD19-TCB-induced B cell depletion and cytokine release in vivo, humanized NSG mice were either treated with 0.5 mg/kg CD19-TCB or co-treated with 0.5 mg/kg CD19-TCB and 50 mg/kg dasatinib as illustrated in FIG. 32. To best mimick the pharmacodynamic profile of dasatinib in the clinic and to verify whether the resulting exposure would be sufficient to prevent CD19-TCB-induced T cell cytotoxicity and cytokine release, dasatinib was given per os twice per day.
At 48 hrs and 72 hrs, mice were bled and the CD20+ B cell count was measured by flow cytometry (FIG. 33). […] The half-life of dasatinib in blood of mice being around 6 hrs, the exposure of dasatinib was probably not sufficient to durably prevent CD19-TCB-induced T cell cytotoxicity, leading to partial activity of CD19-TCB.

[4] = system: IL-2, TNF-α, IFN-γ and IL-6; assay: CD19-TCB induced serum cytokine release in humanized NSG mice (Luminex); assay type: in vivo; details: 1.5 and 6 hrs post treatment, 50 mg/kg dasatinib p.o., monohydrate
Method: Serum was collected from blood samples collected 1.5 hrs post treatment with CD19-TCB in the experiment described in FIG. 32. The levels of IL-2 (A), TNF-α (B), IFN-γ (C) and IL-6 (D) are measured by Luminex. Mean of n=4 mice+/−SEM. One way ANOVA, Kruskal Wallis test, p-value: 0.1234 (ns), 0.0332 (*), 0.0021 (**), 0.0001 (***), <0.0001 (****).
Serum is collected from blood samples collected 6 hrs post treatment with CD19-TCB in the experiment described in FIG. 32. The levels of IL-2 (A), TNF-α (B), IFN-γ (C) and IL-6 (D) are measured by Luminex. Mean of n=4 mice+/−SEM. One way ANOVA, Kruskal Wallis test, p-value: 0.1234 (ns), 0.0332 (*), 0.0021 (**), 0.0001 (***), <0.0001 (****).
Lastly, mice were bled 1.5 and 6 hrs post treatment with CD19-TCB and dasatinib to collect serum for cytokine measurements by Luminex (FIGS. 35 and 36).

Cc1nc(Nc2ncc(C(=O)Nc3c(C)cccc3Cl)s2)cc(N2CCN(CCO)CC2)n1 [dasatinib, N-(2-chloro-6-methylphenyl)-2-[[6-[4-(2-hydroxyethyl)-1-piperazinyl]-2-methyl-4-pyrimidinyl]amino]-5-thiazole carboxamide monohydrate]
release of IFN-γ, TNF-α and IL-2 from activated T cells [1]: rapidly prevented the release of cytokines
killing of CTV labelled Z138 target cells (ON/OFF versus ON/ON) [2]: effectively prevented the killing
killing of CD20+ B cells by CD19-TCB (B cell count in blood) ([3]; 48 hrs, listed as Dasatinib, monohydrate): prevents CD19-TCB dependent B cell depletion until 48 hrs post treatment
killing of CD20+ B cells by CD19-TCB (B cell count in blood) ([3]; 48 hrs, monohydrate): prevented killing
killing of CD20+ B cells by CD19-TCB (B cell count in blood) ([3]; 72 hrs): partially restored
CD19-TCB-induced serum IL-2, TNF-α, IFN-γ and IL-6 ([4]; listed as Dasatinib): prevents CD19-TCB induced cytokine release in vivo
CD19-TCB-induced serum IL-2, TNF-α, IFN-γ and IL-6 [4]: inhibited
